These results are taken from US8242152B2, “Use of 4-[(4-thiazolyl)phenoxy]alkoxy-benzamidine derivatives for the prophylaxis and treatment of osteoporosis” (Dong Wha Pharmaceutical Co., Ltd., priority 2001, dated 2012).

“And” between values parts separate entries of the source, which are not always exact repeats. Equal values may be shown once. Read-outs that look alike come from different tables or passages of the source.

Assay [1] concerns osteoclast fusion. Put plainly: Fusion assay of prefusion osteoclasts (Example 2). Format: cell-based, mice. As to conditions: 24 hrs; for inhibition at 0.08 µM / inhibition at 0.4 µM / inhibition at 2 µM / inhibition at 10 µM: read-out: Inhibitory action (%). The source says:
This assay is designed to evaluate the influences of each test substance in terms of osteoclast fusion during the differentiation process in which immature prefusion osteoclasts (pOC; osteoclast structure with one more nuclei) were transformed into mature multinucleated osteoclast (OCL) via cell to cell fusion (Gregg Wesolowski et al. Experimental Cell Research 219,679-686, 1995).
The prefusion osteoclast can be obtained via co-culture of both bone marrow cells and osteoblast, as prepared from Example 1. The mixture of both osteoblast (about 5×10^5 cells/plate) and bone marrow cells (about 1×10^7 cells/plate) were co-cultured in a 100 mm culture dish. Some differentiation factors, such as dexamethasone (10^−6M) and vitamin D3 (10^−9M), were added to the medium from the first day of culture. The medium was changed with a fresh medium containing differentiation factors every 2 days.
Since a great number of the prefusion osteoclasts having one or more nuclei in fusion process were formed during 4-day co-culture, the cells were separated and co-cultivation after 4 days. The medium was removed from the cells and with the addition of 0.2% collagenase solution (4 mL), the cells were incubated at 37° C. for 20 mins to separate the attachment cells. Since the majority of separated cells were osteoblasts, all osteoblasts were washed with PBS solution two or three times for their complete removal.
After the remaining prefusion osteoclasts were separated via reaction for 20 mins with the addition of echistatin containing 10% BSA, the cells were harvested by centrifuge.
The test substances diluted at each concentration were diluted at the desired concentration in α-MEM medium (addition of 10% FBS) to load them into a 96-well microplate in a dose of 100 uL per well. The osteoclastic monocytes, so separated from the preceding No. 1, were plated on a 96-well microplate in a dose of 5×10^3 cell/100 uL per well and cultured at 37° C. for 24 hrs, thus successfully resulting in the osteoclast fusion. In the case of specimen-free and positive controls, experiments were performed in the same manner as above.
The medium was removed from the cells and then the cells were washed once with PBS and fixed to a PBS solution containing 10% formalin for about 5 mins. The cells were again fixed to both ethanol and acetone (1/1) in a mixing solution for about 5 mins and dried off. The cells were further treated by TRAP staining solution for 15 mins and washed with water to observe the cells under the microscope. The TRAP-positive osteoclast counts, which were differentiated from monocyte to multinucleated cells (osteoclast having more than 10 nuclei) via fusion process, were measured.

In assay [2] the test system is Primary osteoblastic cells. Nature of the assay: ALP activity in primary osteoblastic cells (Example 5). The assay is classed as cell-based, ICR mice. As to conditions: for ALP activity (% of control) / ALP activity (Unit): 3 days. On the procedure:
Primary osteoblastic cells isolated from the calvariae of newborn ICR mice were grown to confluence in α-MEM containing 10% FBS. These cells were plated at a density of 1×10^5/ml in tissue culture dishes. After 24 h, cells were changed with a differentiation medium containing ascorbic acid (50 ug/ml) and β-glycerophosphate (10 mM) with or without the compounds and further cultured for 3 days. Cells were washed twice with PBS and harvested. For the measurement of ALP activity and total protein content, cells were extracted into 0.1% Triton X-100 in PBS containing 1 mM MgCl2 and centrifuged at 1.000×g for 5 minutes. Enzyme activity was determined in supernatants by colorimetric procedure using p-nitrophenyl phosphate (PNP) as a substrate at a wavelength of 405 nm and the protein content was determined by a Bio-Rad protein assay kit. The ALP unit was expressed as nmol PNP/ug protein/min.

Assay [3] relates to osteoclast activity (resorption pits). Put plainly: Bone resorption pit formation assay on dentine slice (Example 5). Format: cell-based, mice. As to conditions: for Inhibitory activity (%) / inhibition at 0.01 µM / inhibition at 0.1 µM / inhibition at 1 µM: dentine slice, 24 h; for inhibition at 0.01 µM / inhibition at 0.1 µM / inhibition at 1 µM: Mus musculus, Osteoclast, read-out: Inhibitory activity (%). On the procedure: Method for evaluating the effects of the compounds on osteoclast activity: Multinucleated osteoclasts were developed on collagen gel plates by co-culture system as described. On day 6-8 of the co-culture, multinucleated OCLs were detached from plates by 0.2% collagenase treatment (“crude OCLs”). Crude OCLs suspended in α-MEM containing 10% FBS were placed on a dentine slice (4 mm diameter) in a 96-well culture plate. […] At the end of the incubation, cells were removed by 1 M NH4OH treatment and resorption pits formed (in the slices stained with Mayer's hematoxylin). Resorption pits were enumerated with an image analyzer and compared to the control group.

Assay [4] has as its system osteoclast differentiation. Nature of the assay: Osteoclast differentiation, co-culture, TRAP(+)MNCs (Example 5). Format: cell-based, mice. As to conditions: for % inhibitory action / inhibition at 0.01 µM / inhibition at 0.1 µM / inhibition at 1 µM: day 6; for inhibition at 0.01 µM / inhibition at 0.1 µM / inhibition at 1 µM: Mus musculus, Osteoclast, 144 h, read-out: % inhibitory action. On the procedure: To investigate the effect of compounds on osteoclast differentiation, co-culture between bone marrow cells (2.5×10^5 cells/cm^2) and calvaria-derived osteoblastic cells (4×10^4 cells/cm^2) was conducted in the presence of 1.25(OH)2D3(10^−8 M) and dexamethasone (10^−7 M) with α-MEM containing 10% FBS (referred as “osteoclastic medium”). Bone marrow cells were isolated from the femora of 6-week-old ddY mice and primary osteoblastic cells were isolated from the calvariae of newborn ICR mice by sequential digestion with 0.2% collagenase. The medium was changed every two days with fresh osteoclastic medium. An index of osteoclast formation was determined by counting TRAP-positive multinucleated osteoclasts (TRAP(+)MNCs). On day 6, the cells were fixed with 10% formaldehyde and stained for TRAP. The number of TRAP(+) MNCs containing more than 6-7 nuclei was counted under a microscope (ZEISS Axiovert 25, Switzerland). The results are shown as the relative inhibitory activity (% inhibition) compared to the control group.

In assay [5] the test system is osteoclast fusion. Put plainly: Osteoclast fusion assay with purified prefusion osteoclasts (Example 5). The assay is classed as cell-based, mice. As to conditions: for inhibition at 0.08 µM / inhibition at 0.4 µM / inhibition at 2 µM / inhibition at 10 µM: read-out: Inhibitory action (%). On the procedure:
The effect of the compounds on the fusion of osteoclasts was examined using purified prefusion osteoclasts (pOC, mononuclear and binuclear osteoclasts). Co-cultures of bone marrow cells (2×10^7 cells/dish) and newborn mice calvariae (1×10^6 cells/dish) were maintained in 100-mm-diameter dishes for 4 days with osteoclast differontiarion factor. Cultures were washed twice with PBS and treated with 0.1% collagenase/dispase at 37° C. for 20 minutes. Released cells, mostly osteoblasts, were removed with a pipet and the plates were washed three times with PBS. The remaining cells were incubated with 30 uM echistatin in α-MEM containing 1% BSA for 20 min at 37° C. These cells were collected, pelleted, and washed once with α-MEM containing 10% FBS. The cells released by this treatment were the subject of the fusion assay. More than 90% of the cells in the pOCs preparation used in the present study were positive for TRAP.
pOCs (15,000 cells/well) were plated on 96 well culture plates with or without various compounds. After culture for 18 hours, the cells were fixed and stained for TRAP.

The target of a further assay is LTB4 receptor (Homo sapiens, UniProt Q15722). On the set-up: endogenous in cells; host or cells: human neutrophils (PMN) purified from fresh blood. As to conditions: cited from earlier work.
LTB4 receptor, sequence (Q15722 whole entry): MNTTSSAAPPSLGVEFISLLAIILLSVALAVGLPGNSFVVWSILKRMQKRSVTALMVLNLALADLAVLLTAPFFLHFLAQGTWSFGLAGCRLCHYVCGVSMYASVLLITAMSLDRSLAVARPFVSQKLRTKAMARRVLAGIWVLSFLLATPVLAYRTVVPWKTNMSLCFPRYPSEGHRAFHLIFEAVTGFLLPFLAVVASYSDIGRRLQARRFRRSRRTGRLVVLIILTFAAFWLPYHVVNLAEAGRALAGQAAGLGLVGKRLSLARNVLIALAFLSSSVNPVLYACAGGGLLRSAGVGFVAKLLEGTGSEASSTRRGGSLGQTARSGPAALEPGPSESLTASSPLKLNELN
[6] abbreviates: Mus musculus, Osteoclast, 0.08 uM.
Setting [7] is: Mus musculus, Osteoclast, 0.4 uM.
[8] abbreviates: Mus musculus, Osteoclast, 10 uM.
[9] abbreviates: Mus musculus, Osteoclast, 0.08 uM, 18 hours.
Where [10] appears, read: Mus musculus, Osteoclast, 0.4 uM, 18 hours.
Setting [11] is: Mus musculus, Osteoclast, 2 uM, 18 hours.
The mark [12] stands for this setting: Mus musculus, Osteoclast, 10 uM, 18 hours.

Turning to “4-[5-[4-(aminoiminomethyl)phenoxy]pentoxy]-3-methoxy-N,N-bis(1-methylethyl)benzamide maleic acid [CGS-25019C]”, the “Inhibitory action (%)” value in the assay with osteoclast fusion [1] (0.08 uM) is reported as 10.14%; with osteoclast fusion [1] (0.4 uM), 13.04%; in the assay on osteoclast fusion [1] (2 uM), 13.77%; in the assay on osteoclast fusion [1] (10 uM) it was 12.32%; in the assay with osteoclast fusion [5] (0.08 uM, 18 hours), 10.14%; in the assay on osteoclast fusion [5] (0.4 uM, 18 hours), 13.04%. For the same molecule, the “Inhibitory action (%)” value came to 13.77% in the assay with osteoclast fusion [5] (2 uM, 18 hours) and 12.32% in the assay with osteoclast fusion [5] (10 uM, 18 hours). The “ALP activity (% of control)” value in assay [2] (0.01 uM) was 121.3 % of control; in assay [2] (0.1 uM), 115.3 % of control. The “ALP activity (Unit)” value in assay [2] (0.01 uM) worked out at 20.6 nmol PNP/ug protein/min; in assay [2] (0.1 uM), 19.7 nmol PNP/ug protein/min. Further, the “Inhibitory activity (%)” value in assay [3] (0.01 uM) was 0(−24) %; in assay [3] (0.1 uM), 10.4%; in assay [3] (1 uM), 24.8%. Moreover, the “% inhibitory action” value in assay [4] (0.01 uM) turned out to be 11.2%; in assay [4] (0.1 uM), 29.5%; in assay [4] (1 uM) it was 36.9%.

As for `Cc1nc(-c2ccc(OCCCCOc3ccc(C(=N)NO)cc3)cc2)c(C(C)C)s1` [DW1349, N— hydroxy-4-{4-[4-(5-isopropyl-2-methyl-1,3-thiazol-4-yl)phenoxy]butoxy}-benzamidine], the inhibition at 0.08 µM with osteoclast fusion [1] (setting [6]) and in the assay on osteoclast fusion [5] (setting [9]) was 0% each time. Also, the inhibition at 0.4 µM in the assay on osteoclast fusion [1] (setting [7]) and with osteoclast fusion [5] (setting [10]) was 2.3% in each case. Also, the inhibition at 2 µM in the assay on osteoclast fusion [1] (Mus musculus, Osteoclast, 2 uM) was determined as 4.5%; in the assay with osteoclast fusion [5] (setting [11]), 4.5%. Further, the inhibition at 10 µM in the assay with osteoclast fusion [1] (setting [8]) and with osteoclast fusion [5] (setting [12]) was 18% throughout. Also, the “ALP activity (% of control)” value in assay [2] (0.01 uM) is given as 113.2 % of control; in assay [2] (0.1 uM) it was 101.6 % of control. The “ALP activity (Unit)” value was found to be 19.0 nmol PNP/ug protein/min in assay [2] (0.01 uM) and 17.2 nmol PNP/ug protein/min in assay [2] (0.1 uM). Besides, the inhibition at 0.01 µM came out at 19.3% in assay [3] (0.01 uM) and 31.9% in assay [4] (0.01 uM). Besides, the results for the inhibition at 0.1 µM in assay [3] (0.1 uM) and in assay [4] (0.1 uM) were 36.1% and 46.8%, respectively. Besides, the inhibition at 1 µM in assay [3] (1 uM) was found to be 64.7%; in assay [4] (1 uM) it was 85.5%. For the same molecule, the “Inhibition (%) of LTB4 receptor binding” value at LTB4 receptor (100 nM) is listed as 32.7%; at LTB4 receptor (1 uM) it was 87.2%.

As a reminder, the IC50 is the concentration that gives 50% inhibition. Low readings indicate greater potency, high ones weaker potency. Regarding `Cc1nc(-c2ccc(OCCCCCOc3ccc(C(=N)NO)cc3)cc2)c(C(C)C)s1` [DW1350, N-hydroxy-4-{5-[4-(5-isopropyl-2-methyl-1,3-thiazol-4-yl)phenoxy]pentoxy}-benzamidine], the inhibition at 0.08 µM with osteoclast fusion [1] (setting [6]) and in the assay on osteoclast fusion [5] (setting [9]) was 4.5% in each case. Besides, the inhibition at 0.4 µM in the assay with osteoclast fusion [1] (setting [7]) and with osteoclast fusion [5] (setting [10]) was 25.6% each time. For the same molecule, the inhibition at 2 µM in the assay with osteoclast fusion [1] (Mus musculus, Osteoclast, 2 uM) stood at 80%; in the assay on osteoclast fusion [5] (setting [11]), 80%. In addition, the inhibition at 10 µM in the assay with osteoclast fusion [1] (setting [8]) and with osteoclast fusion [5] (setting [12]) was 98% throughout. The half-inhibitory concentration (IC50) was determined as 810 nM in the assay on osteoclast fusion [1] (Mus musculus, Osteoclast) and 810 nM with osteoclast fusion [5] (Mus musculus, Osteoclast, 18 hours). For the same molecule, the “ALP activity (% of control)” value in assay [2] (0.01 uM) is 141.9 % of control; in assay [2] (0.1 uM), 153.7 % of control. The “ALP activity (Unit)” value in assay [2] (0.01 uM) was found to be 24.4 nmol PNP/ug protein/min; in assay [2] (0.1 uM), 26.7 nmol PNP/ug protein/min. The “times better stimulator of osteoblast activity (ALP) than DW1349” value in assay [2] (versus DW1349) came to 1.25 times. For the same molecule, the “times greater stimulation of osteoblast activity (ALP) than DW1351 and DW1352” value in assay [2] (versus DW1351 and DW1352) is listed as 1.15˜1.25 times. Further, the inhibition at 0.01 µM worked out at 45.2% in assay [3] (0.01 uM) and 38.5% in assay [4] (0.01 uM). Further, the inhibition at 0.1 µM is 52.6% in assay [3] (0.1 uM) and 62.7% in assay [4] (0.1 uM). Also, the values for the inhibition at 1 µM in assay [3] (1 uM) and in assay [4] (1 uM) were 72.6% and 88.7%, respectively. Further, in assay [3] (versus DW1349, Table 10), the “times better than DW1349 in inhibiting osteoclast activity” value is listed as “about 1.45 times”. In addition, the “times more inhibition of osteoclast activity than DW1351” value in assay [3] (versus DW1351, Table 10) is recorded as “two-fold better inhibitor”. The “Inhibition (%) of LTB4 receptor binding” value at LTB4 receptor (100 nM, 0.1 µM) was 10% and < 10%; on LTB4 receptor (100 nM, listed as 1350, 0.1 µM), less than 10%; at LTB4 receptor (1 uM), 92.3%. Besides, the “times more inhibition of osteoclast differentiation than DW1349” value in assay [4] (versus DW1349, Table 8) amounted to 1.34 times. Also, the “times stronger inhibition of osteoclast differentiation than DW1351” value in assay [4] (versus DW1351, Table 8) is reported as “about two times better”. In the assay with osteoclast fusion [5] (2 uM, versus DW1349), the “times stronger inhibition of osteoclast fusion than DW1349” value stood at 17.8 times. Moreover, in the assay with osteoclast fusion [5] (versus DW1351), the “times more inhibition of osteoclast fusion than DW1351” value is recorded as “two fold better inhibitor”.
